Article PMC7475896, “Ruthenium(II) and Iridium(III) Complexes as Tested Materials for New Anticancer Agents” (Materials, 2020)
In brackets after ≈: the same amount, converted by molar mass. Entries after “also recorded” stand apart in the source; their conditions may differ.

Columns and labels:
[1] = tested on: myelomonocytic leukaemia (MV-4-11) cell line; test: in vitro cytotoxicity, MTT assay, MV-4-11; assay type: cell-based
Experimental: (§1) The cytotoxicity of the investigated complexes 1–3 was determined by microculture with sulforhodamine B SRB (all adherent cells) and MTT ([3-(4,5-dimethyl(thiazol-2-yl) -2,5-diphenyltetrazoliumbromide)]) (for cells in suspension (leukemia cells)) assays with the following three tumor cell lines: colorectal adenoma (LoVo), myelomonocytic leukemia (MV-4-11), and breast adenocarcinoma (MCF-7), as well as a healthy mouse fibroblast (BALB/3T3) cell line. The cytotoxicity of the compounds was measured using the methods described previously. […] The results for cisplatin, used as a test control, were presented in the form of IC50 value (this is the concentration of the compound causing the inhibition of cell proliferation of 50% of the cell population). The results were calculated from 2 to 3 independent experiments.

[2] = tested on: normal mouse fibroblast (BALB/3T3) cell line; conditions: read-out: IC50 against normal BALB/3T3; cited from earlier work
[3] = in vitro cytotoxicity, SRB assay, normal BALB/3T3; assay type: cell-based, mouse; conditions: mouse, BALB/3T3 normal mouse fibroblast cells; compound concentration 10 μg/mL; normal cell line
Experimental: as §1

[4] = target: T1, human serum albumin (HSA) (Homo sapiens, UniProt P02768); test: HSA conformation by CD spectroscopy; assay type: binding; conditions: free HSA 56%
T1 construct: purchased Sigma-Aldrich Chemie GmbH (Steinheim, Germany)
Experimental: (§2) Determination of log P values, and studies on the interactions of ruthenium(II) (1), iridium(III) complexes (2, 3) with CT-DNA, HSA and GSH, were performed according to the previous procedure published in the paper.
(§3) Because plasma albumins can interfere with anticancer compounds and change their biological activity, especially their cytotoxicity effectiveness, it is important to obtain insight into interactions of the analyzed complexes with HSA as a plasma protein. The UV-Vis spectra of HSA with increasing amounts of complexes show increasing of HSA absorbance without any shift (Figure 13 a–c). […] To detect any changes of the microenvironment or the conformations of HSA caused by the analyzed complexes, CD spectroscopy was used (Figure 13e,f). […] The noticeable, spectral changes indicate a partial unfolding of the protein structure, leading to the loss of its stability.
(§4) Figure 13 Changes in UV-Vis absorption spectra of HSA (2 × 10^−5 M) in Tris-HCl/NaCl buffer upon addition of 1 (a), 2 (b) and 3 (c) in different molar ratio and CD spectra of HSA incubated with 1 (d), 2 (e) and 3 (f) in different molar ratio.

[5] = lipophilicity (log P) determination; assay type: physicochemical
Experimental: as §2

[6] = tested on: normal mouse fibroblast (BALB/3T3) cell line; test: in vitro cytotoxicity, SRB assay, normal BALB/3T3; assay type: cell-based; conditions: for Cell viability [%] BALB/3T3: compound concentration 10 μg/mL, normal cell line
Experimental: as §1

[7] = glutathione deactivation experiment (Ellman method); assay type: biochemical; conditions: after 28 h incubation
Experimental: as §2
Comparing similar data of cell viability and IC50 for both iridium(III) complexes with GSH deactivation results, some correlation was observed.

[8] = target: T1, human serum albumin (HSA); test: HSA binding by UV-Vis spectroscopy; conditions: HSA 2 × 10^−5 M in Tris-HCl/NaCl buffer
Experimental: as §2, §3, §4

CT-DNA = test: DNA melting test by 3D CD; assay type: binding; conditions: 100 μM CT-DNA, Tris-HCl/NaCl pH 7.2; free CT-DNA Tm 55.2 ± 0.7 °C
Experimental: The melting profiles of DNA/complex mixtures were recorded on a Jasco J-815 spectropolarimeter (Kettenbrückengasse, Austria) equipped with a CDF-426S/15 Peltier temperature controller. CD melting experiments were performed using 100 μM CT DNA concentration, in the absence and presence of 100 equivalents of complexes (in Tris-HCl/NaCl buffer, pH 7.2). CD melting were performed at 5 °C/min heating rate in the 35–95 °C temperature range. Each spectrum was recorded in the 220–300 nm wavelength range, averaged over three scans and subtracting the buffer baseline. After each temperature change, the system was left to equilibrate for 3 min. From 3D data, we selected the proper wavelength (256 nm) and obtained a classic 2D melting profile (fraction folded vs. temperature). The melting temperatures (Tm) were mathematically calculated by using the curve fitting function in Origin 2020 software (OriginLab, Northampton, MA, USA). Tm values represent the melting temperature of the DNA with and without complexes.
To solve the problem of the mode of iridium-DNA binding, covalent and non-covalent, DNA melting experiments were conducted. […] The Tm of the tested solution was determined as the transition midpoint of the melting curve by monitoring the maximum of the ellipticity and absorbance as a function of temperature ranging from 35 to 95 °C. […]

[9] = tested on: breast adenocarcinoma (MCF-7) cell line; test: in vitro cytotoxicity, SRB assay, MCF-7; assay type: cell-based; conditions: concentration of 10 μg/mL
Experimental: as §1

[10] = catalytic oxidation of NADH to NAD+ (UV-Vis); assay type: biochemical; conditions: complex 1 µM, NADH 100 µM, 50% MeOH/50% H2O, 37 °C, 9 h
Experimental: The reaction of analyzed complexes (1 µM) with NADH (100 µM) in 50% MeOH/50% H2O (V:V) was examined by UV-Vis spectroscopy at 37 °C after various time intervals (0.5–9 h). The turnover number (TON) was calculated from the difference in NADH concentration after 9 h divided by the concentration of analyzed iridium complexes. The concentration of NADH was obtained using the extinction coefficient ε339 = 6220 M^−1cm^−1.
Figure 12 UV-Vis spectra for the catalytic oxidation of NADH (100 μM) to NAD^+ in the presence of complexes (1 μM) over a 9 h period in 50% MeOH/50% H2O (V:V) (inset: wavelength absorbance changes from 315-360 nm).

[11] = tested on: colorectal adenoma (LoVo) cell line; test: in vitro cytotoxicity, SRB assay, LoVo; assay type: cell-based; conditions: concentration of 10 μg/mL
Experimental: as §1

[12] = compound concentration 10 μg/mL

T1 sequence (P02768 25-609): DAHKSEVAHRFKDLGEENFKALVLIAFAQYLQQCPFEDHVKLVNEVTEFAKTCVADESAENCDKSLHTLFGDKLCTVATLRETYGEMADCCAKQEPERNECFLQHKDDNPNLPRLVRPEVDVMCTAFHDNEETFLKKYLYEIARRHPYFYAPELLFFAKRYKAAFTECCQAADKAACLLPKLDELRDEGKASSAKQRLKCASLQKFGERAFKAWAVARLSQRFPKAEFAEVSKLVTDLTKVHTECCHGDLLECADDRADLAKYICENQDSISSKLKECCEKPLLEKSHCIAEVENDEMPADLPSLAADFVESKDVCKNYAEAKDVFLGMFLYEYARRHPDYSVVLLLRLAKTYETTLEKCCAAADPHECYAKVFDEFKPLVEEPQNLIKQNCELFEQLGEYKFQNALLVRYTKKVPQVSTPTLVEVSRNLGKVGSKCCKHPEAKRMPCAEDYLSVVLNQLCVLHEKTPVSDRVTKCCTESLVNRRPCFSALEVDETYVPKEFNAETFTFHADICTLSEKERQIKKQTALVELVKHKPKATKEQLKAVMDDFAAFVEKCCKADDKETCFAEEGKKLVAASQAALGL

Compound	IC50 against MV-4-11 ([1]; MV-4-11 cell line)	α-helical structure of HSA under the influence of complex [4]	log P [5]	Cell viability [%] BALB/3T3 [6]	concentration of unreacted GSH remaining [7]	HSA binding constant [8]	decrease of melting temperature (Tm) of CT-DNA (CT-DNA)	Cell viability [%] MV-4-11 [1, 12]	turnover number (TON) [10]	further results
N.N.[Cl][Pt][Cl] [cisplatin, reference compound]	0.27 µg/mL	–	–	–	–	–	–	–	–	–
[(η^6-p-cymene)RuCl(2,2′-PyBIm)]PF6	–	–	–	–	–	–	–	–	–	IC50 [2]: 43.7 µM
O=C(c1ccccn1)c1ccccn1 [py2CO, di-2-pyridylketone, reference compound]	–	–	–	–	–	–	–	–	–	viability at 10 µg/mL [3]: 95.5%; IC50 ([1]; Homo sapiens, MV4-11, MV-4-11 cell line, read-out: IC50 against MV-4-11): 62.9 µg/mL (≈ 341 µM); viability at 10 µg/mL ([1]; Homo sapiens, MV4-11, compound concentration 10 μg/mL): 98%
[(η^5-Cp)IrCl(py2CO)]PF6 [complex 2]	40.2 µg/mL	52%	−1.14 ± 0.06	100%	0.037 mmol/L	1.52 × 10^5	approximately 0.5 °C	68%	3.3	inhibition of cell proliferation, MCF-7 [9]: 3.7%
NH4[IrCl4(py2CO)]·H2O [complex 3]	35.8 ± 13.9 µg/mL	55%	−0.30 ± 0.05	98.6%	0.037 mmol/L	6.54 × 10^4	~8.5 °C	68%	4.8	toxic effect against normal BALB/3T3 ([6]; result in words): without a toxic effect; also recorded: without any toxic effect
[(η^6-p-cymene)RuCl(py2CO)]PF6 [complex 1]	49.8 µg/mL	51%	−1.44 ± 0.11	–	–	3.22 × 10^5	–	83%	–	inhibition of cell proliferation, LoVo [11]: 1.4%
